The test system of data set [1] is memory deficit induced with scopolamine. Put plainly: Memory deficit induced with scopolamine (passive avoidance test). Type of data set: in vivo. Particulars: rats; active doses over the range from 0.04 to 2.5 mg/kg. The source says: In accordance with the cholinergic hypothesis of the phenomena of learning and memory, scopolamine has […] properties in animals and man. Its administration to a healthy person induces certain amnesia symptoms similar to those observed in Alzheimer's disease. It has been proposed that the scopolamine be used as an experimental pharmacological model of this pathology. The similarities between the memory deficits of Alzheimer's disease and those induced with scopolamine in rats have been published (P. Chopin et M. Briley, The effects of raubasine and dihydroergocristine on an […] deficit in passive avoidance learning in rats, J.Pharm.Pharmacol. 42, 375-376, 1990). Scopolamine reduces the capacity for acquisition, memorization and recall in a test of passive avoidance in rats. This involves measuring the reticence, after learning, that the animal has in entering a dark compartment, where it receives a mild electric shock. The administration of scopolamine suppresses this reticence, and the test compounds oppose the effect of scopolamine. The comparison of the products of the present invention is made with the known compound RX 821002, dextrorotatory enantiomer. The experimental protocol is that published by P. Chopin and M. Briley (Effects of four non-cholinergic cognitive enhancers in comparison with tacrine and galanthamine on scopolamine-induced amnesia in rats: Psychopharmacology, 106, 26-30, 1992).

The test system of a further data set is α1 or α2 receptors. Particulars: from J. Med. Chem. publications; cited from earlier work.
The next data set concerns α2-adrenergic receptors. The data set is described as follows: Inhibition of the hypothermia induced with guanabenz. The format is in vivo. As to conditions: for Number of doses inducing the inhibition of hypothermia in 100% of the animals: each dose separated by a factor of 4; for ED50 inhibition of hypothermia / Range of active doses, inhibition of hypothermia / ED50 normalization of hypothermia / Range of active doses, normalization of hypothermia: i.p.; for Range of active doses, normalization of hypothermia: normalization (return to normal temperature). As to the method: The assessment of the biological activity of the compounds of the invention is also carried out in vivo by studying the inhibition of the hypothermia induced with a central α2-agonist such as guanabenz according to the protocol of S. C. Dilsaver, Pharmacol. Biochem. Behav., 45, 247, 1993.
The inhibitory capacities are expressed as the ED50 which represent the doses producing a significant inhibition of the hypothermia induced with guanabenz on the one hand, and a normalization, that is to say a return to the normal temperature for the animal, before injection of guanabenz on the other hand. These values are obtained using the method of J. T. Litchfield and F. Wilcoxon (J. Pharmacol. Exp. Ther., 96, 99, 1949). The comparison is made between the 2-methoxy compounds, fluorinated in position 5 (dextrorotatory compound of Example 1) and nonfluorinated: (+) RX 821002, and between the 2-ethoxy, fluorinated in position 5 (dextrorotatory compound of Example 2) and nonfluorinated: (+) RX 811059.

The next data set concerns release of noradrenalin. The data set is described as follows: Release of noradrenalin: normetanephrine level in frontal cortex. The format is in vivo. Particulars: mice, i.p., 0.01 to 2.5 mg/kg, 60 minutes, cortical tissue, HPLC. As for the experimental part:
The level of normetanephrine, a noradrenalin metabolite, in the cerebral tissues is used as a measurement of the release of noradrenalin. Wood, P. L. and coll. Pharmacological Rev. 40, 163-187, (1988), and J. Neurochem. 48, 574-579, (1987)). The formation of normetanephrine, by the action of catechol O-methyltransferase takes place on the outside of the noradrenergic neurones and its measurement takes account of variations in the release of noradrenalin. This measurement is performed in the frontal cortex, a region innervated mainly by the locus coeruleus.
The test compound is administered intraperitoneally to the mice, which are sacrificed after 60 minutes by irradiation with microwaves (to avoid any artefactual changes in the metabolite levels). After dissection, normetanephrine is assayed by HPLC on the cortical tissue extracts. At doses of 0.01 to 2.5 mg/kg, the assayed normetanephrine represents a level from 125 to 150% higher with the compound of Example 1, relative to (+) RX 821002, under the same conditions.

Consider 13 molecules from US6610725B1, “Fluorinated imidazoline benzodioxane, preparation and therapeutic uses thereof” (Pierre Fabre Medicament, priority 1999, dated 2003).

“Also recorded” adds a separate entry of the source. Where a name gives a salt, the structure may show the parent alone. Bounds are passed on as bounds.

Turning to `Nc1c2c(nc3ccccc13)CCCC2` [Tacrine], the “Increase in the time taken to enter the dark compartment by the treated animals, relative to those receiving scopolamine alone (% amplitude of the effect)” value in data set [1] was 191%.
In turn, `CCCOC1(C2=NCCN2)COc2c(F)cccc2O1` (stereo not shown) (as salt: hydrochloride) [Example 3, 2-(5-Fluoro-2-propoxy-1,4-benzodioxan-2-yl)-imidazoline Hydrochloride] returned a melting point of 206 °C.
In the case of `COc1cc2c(cc1OC)OC(OC)(C1=NCCN1)CO2` (stereo not shown), the “Activity relative to unsubstituted idazoxan analog / α2-presynaptic antagonist activity” value with α1 or α2 receptors was “only extremely marginal activity”.
As for `C=CCOC1(C2=NCCN2)COc2c(F)cccc2O1` (stereo not shown) (as salt: hydrochloride) [Example 7, 2-(5-Fluoro-2-allyloxy-1,4-benzodioxan-2-yl)-imidazoline Hydrochloride], the melting point came to 214 °C.
Same read-out and setting: the figure for `CC(C)COC1(C2=NCCN2)COc2c(F)cccc2O1` (stereo not shown) (as salt: hydrochloride) [Example 5, 2-(5-Fluoro-2-isobutoxy-1,4-benzodioxan-2-yl)-imidazoline Hydrochloride] is 206 °C; for `Fc1cccc2c1OCC(OCc1ccccc1)(C1=NCCN1)O2` (stereo not shown) (as salt: hydrochloride) (hydrate or solvate) [Example 8, 2-(5-Fluoro-2-benzyloxy-1,4-benzodioxan-2-yl)-imidazoline Hydrochloride] it is 218 °C.
As to `COC1(C2=NCCN2)COc2c(F)cccc2O1` (stereo not shown) [Dextrorotatory compound of Example 1, 2-(5-Fluoro-2-methoxy-1,4-benzodioxan-2-yl)-2-imidazoline], in the data set with α2-adrenergic receptors, the “Number of doses inducing the inhibition of hypothermia in 100% of the animals” value is 6 doses; the “ED50 inhibition of hypothermia” value worked out at 0.003 mg/kg; the “Range of active doses, inhibition of hypothermia” value (from here on “Range … inhibition of hypothermia”) is 0.0025 to 40 mg/kg; the “ED50 normalization of hypothermia” value turned out to be 0.02 mg/kg. In addition, in the data set on α2-adrenergic receptors, the “Range of active doses, normalization of hypothermia” value fell in the range of 0.0025 to 10 mg/kg; the “ED50 normalization (per os)” value worked out at 0.22 mg/kg; the “Range of active doses (per os) normalization” value lay within 0.04 to 40 mg/kg. In addition, the “Number of doses normalizing the hypothermia in 100% of the animals” value with α2-adrenergic receptors (in vivo) came to 3 doses. The “Increase in the time taken to enter the dark compartment by the treated animals, relative to those receiving scopolamine alone (% amplitude of the effect)” value in data set [1] was 201%.
For `COc1cc2c(cc1OC)C(=O)C(CC1CCN(Cc3ccccc3)CC1)C2` (stereo not shown) [Donepezil], the “Increase in the time taken to enter the dark compartment by the treated animals, relative to those receiving scopolamine alone (% amplitude of the effect)” value in data set [1] is 67%.
For the molecule `COC1(C2=NCCN2)COc2ccccc2O1` (single isomer, unassigned; (+)) [(+) RX 821002, 2-methoxy idazoxan], in the data set on α2-adrenergic receptors, the “Number of doses inducing the inhibition of hypothermia in 100% of the animals” value is 2 doses; the “ED50 inhibition of hypothermia” value is recorded as 0.01 mg/kg; the “Range … inhibition of hypothermia” value lay in the range of 0.01 to 10 mg/kg; the “ED50 normalization of hypothermia” value is 0.05 mg/kg. Further, in the data set on α2-adrenergic receptors, the “Range of active doses, normalization of hypothermia” value is 0.04 to 2.5 mg/kg; the “ED50 normalization (per os)” value was determined as 0.56 mg/kg; the “Range of active doses (per os) normalization” value fell in the range of 0.16 to 10 mg/kg. Besides, in the data set with α2-adrenergic receptors (list of single doses), the “Doses normalizing the hypothermia in 100% of the animals” value is listed as “none”. Also, in the data set on α2-adrenergic receptors (reached at only 2 doses), the “Proportion of the animals in which hypothermia is normalized (maximum reached)” value is on record as 80%. Also, in data set [1], the “Increase in the time taken to enter the dark compartment by the treated animals, relative to those receiving scopolamine alone (% amplitude of the effect)” value was “not significantly active; also recorded: non-significant”.
As for `COC1(C2=NCCN2)COc2c(F)cccc2O1` (stereo not shown) [Example 1, 2-(5-Fluoro-2-methoxy-1,4-benzodioxan-2-yl)-2-imidazoline], the “Assayed normetanephrine level relative to (+) RX 821002” value in the data set on release of noradrenalin fell in the range of 125 to 150 % higher.
In the case of `CCOC1(C2=NCCN2)COc2c(F)cccc2O1` (stereo not shown) (as salt: salt) [Example 2, 2-(5-Fluoro-2-ethoxy-1,4-benzodioxan-2-yl)-2-imidazoline], the melting point is above 260 °C.
Turning to `CCOC1(C2=NCCN2)COc2ccccc2O1` (single isomer, unassigned; (+)) [(+) RX 811059, 2-ethoxy idazoxan], in the data set on α2-adrenergic receptors, the “ED50 inhibition of hypothermia” value is 0.08 mg/kg; the “Range … inhibition of hypothermia” value is 0.04 to 10 mg/kg; the “ED50 normalization of hypothermia” value was determined as 0.32 mg/kg; the “Range of active doses, normalization of hypothermia” value lay in the range of 0.16 to 10 mg/kg.
As to `CCOC1(C2=NCCN2)COc2c(F)cccc2O1` (stereo not shown) [Dextrorotatory compound of Example 2, 2-(5-Fluoro-2-ethoxy-1,4-benzodioxan-2-yl)-2-imidazoline], in the data set on α2-adrenergic receptors, the “ED50 inhibition of hypothermia” value was found to be 0.02 mg/kg; the “Range … inhibition of hypothermia” value was 0.0025 to 40 mg/kg; the “ED50 normalization of hypothermia” value was found to be 0.16 mg/kg; the “Range of active doses, normalization of hypothermia” value is 0.01 to 10 mg/kg. Also, in data set [1], the “Increase in the time taken to enter the dark compartment by the treated animals, relative to those receiving scopolamine alone (% amplitude of the effect)” value is 198%.
